Experimental data taken from patent US20250120928A1 (University of Maryland, Baltimore, priority 2021, published 2025).

Legend:
HDAC1, 2, 3 = conditions: comparison value for Tubastatin A; read-out: IC50 against HDAC1, 2, 3; cited from earlier work
[1] = test system: B cells (B220+) isolated from splenocytes; assay: Splenocyte apoptosis and cell death by AV/PI flow cytometry, B cells; type: cell-based
Experimental: Splenocytes were isolated from spleens as previously described. Briefly, 5-12-week C57BL/6J female mice were euthanized and the spleen was isolated. The spleen was processed into single-cell suspensions using a 40 μm cell strainer and flushed with cold PBS supplemented with 1% FBS and 0.4% 0.5 M EDTA (Quality Biological, Gaithersburg, MD). Erythrocytes were lysed with ACK lysis buffer (Quality Biological, Gaithersburg, MD). […] Subsequently, splenocytes were stimulated with 100 ng/mL LPS for 24 hours. Splenocytes were then washed with cold PBS supplemented with 1% FBS and 0.4% 0.5 M EDTA and FcR blocked, as previously mentioned. Splenocytes were then stained with purified anti-mouse PE/Cyanine7 CD45R/B220 antibody (#103222) (BioLegend, San Diego, CA) for the B cell population. SAHA and SAHA-OH apoptosis and cell death were then assessed using the FITC-AV Apoptosis Detection Kit with PI via flow cytometry, as previously mentioned. Flow cytometry data were collected using a Cytex Aurora flow cytometer. Flow plots and data processing was done using FCS Express 7 Flow Cytometry De Novo Software (De Novo, Glendale, CA).

BMMØs [2] = assay: Western blot analysis of acetyl-histone H3 and acetyl-α-tubulin; conditions: 10 μM, unstimulated BMMØs, 4 and 9 hours
Experimental: Day 8 BMMØs were seeded at 1×10^6 cells/well in sterile 6-well plates incubated at 37° C. and 5% CO2 overnight to allow for cell adherence. […] Cells were lysed with Halt™ Protease Inhibitor Cocktail (Cat #78429) (Thermo Fisher, Waltham MA) in RIPA Buffer (Cat #R0278) (Sigma-Aldrich, St. Louis, MO) and scraped with a cell scraper (VWR, Radnor, PA). Lysates were sonicated with a ⅛^th needle tip using a Cole-Parmer 500-Watt Ultrasonic Homogenizer at 40% amplitude for 10 seconds on ice. Lysates were then centrifuged at 4° C. for 20 minutes at 12,000×g. The supernatant was collected and frozen at −80° C. until ready for western blot analysis. Protein lysates were produced using 50/50 sample to 2×SDS/PAGE sample buffer. Proteins were then separated by SDS/PAGE and immunoblotted using Histone H3 (D1H2) XP, Acetyl-Histone H3 (lys9/Lys14), α-Tubulin (11H10), Acetyl-α-Tubulin (Lys40) (D20G3) XP and β-Actin as primary antibodies. ECL was used for detection.
Day 8 BMMØs were seeded at 1×10^6 cells/well in sterile 6-well plates incubated at 37° C. and 5% CO2 overnight to allow for cell adherence. […] Cells were lysed with Halt™ Protease Inhibitor Cocktail (Cat #78429) (Thermo Fisher, Waltham MA) in RIPA Buffer (Cat #R0278) (Sigma-Aldrich, St. Louis, MO) and scraped with a cell scraper (VWR, Radnor, PA). Lysates were sonicated with a ⅛th needle tip using a Cole-Parmer 500-Watt Ultrasonic Homogenizer at 40% amplitude for 10 seconds on ice. Lysates were then centrifuged at 4° C. for 20 minutes at 12,000×g. The supernatant was collected and frozen at −80° C. until ready for western blot analysis. Protein lysates were produced using 50/50 sample to 2×SDS/PAGE sample buffer. Proteins were then separated by SDS/PAGE and immunoblotted using Histone H3 (D1H2) XP, Acetyl-Histone H3 (Lys9/Lys14), α-Tubulin (11H10), Acetyl-α-Tubulin (Lys40) (D20G3) XP and β-Actin as primary antibodies. ECL was used for detection.

[3] = test system: T cells (CD3+) from splenocytes; assay: Splenocyte apoptosis and cell death by AV/PI flow cytometry, T cells; type: cell-based; conditions: concentrations up to 30 μM
[4] = test system: LPS-induced endotoxemia mouse model; assay: Plasma cytokine analysis in the LPS-induced endotoxemia mouse model; type: in vivo, male C57BL/6J mice; conditions: 50 mg/kg i.p. 3 hours before 20 mg/kg LPS i.p.; blood 3 hours post-LPS
Experimental: Terminal cardiac blood draws from the left ventricle occurred 3 hours post LPS injections using a 25 g needle and 1 mL syringe into an EDTA coated lavender blood collection tube (BD Medical, Franklin Lakes, NJ). Blood samples were centrifuged at 1000×g for 10 minutes within 30 minutes of collection. Plasma was extracted and diluted 10,000-fold for ELISA IL-6 measurement and diluted 10-fold for TNFα measurements.
Terminal cardiac blood draws from the left ventricle occurred 3 hours post LPS injections using a 25 g needle and 1 mL syringe into an EDTA coated lavender blood collection tubes (BD Medical, Franklin Lakes, NJ). Blood samples were centrifuged at 1000×g for 10 minutes within 30 minutes of collection. Plasma was extracted and diluted 10,000-fold for ELISA IL-6 measurement and diluted 10-fold for TNFα measurements. MAGPIX Luminex bead-based multiplex ELISA (Thermo Fisher Scientific, Waltham, MA) of mouse plasma (diluted 100-fold) measured for 26 various cytokines and chemokines and data was analyzed using the Luminex xPONENT software (Millipore) as per manufacturer's instructions. The 26-plex panel include murine IL-1β, IL-2, IL-4, IL-5, IL-6, IL-9, IL-10, IL-12p70, IL-13, IL-17A (CTLA-8), IL-18, IL-22, IL-23, IL-27, GM-CSF, IFNγ, TNFα, MCP-1 (CCL2), MIP-1α (CCL3), MIP-10 (CCL4), RANTES (CCL5), MCP-3 (CCL7), Eotaxin (CCL11), GROα (CXCL1), MIP-2a (CXCL2), and IP-10 (CXCL10).

spleen and liver = assay: Hematoxylin and eosin (H&E) histology of spleen and liver, LPS-induced endotoxemia mice; type: in vivo, male C57BL/6J mice; conditions: 50 mg/kg i.p. 3 hours before 20 mg/kg LPS; 3 hours post-LPS
Experimental: The differences in tissue architecture of liver and spleen were assessed using the same cohort of mice as the cytokine analysis at 3 hours post-LPS administration. Prior to tissue harvest, whole-body perfusion was performed post-cardiac blood draw by slowly flushing 10 mL of 37° C. PBS through the left ventricle of the heart while a cut in the right atrium allowed for the flow of blood. The liver and spleen were harvested, placed into tissue cassettes (VWR, Radnor, PA), and fixed overnight in 10% buffered formalin (Sigma-Aldrich, St. Louis, MO). The following day, the organs were paraffin-embedded and sectioned into 5 μm slices. Slides were stained for H&E to define histological architecture using standard procedures.
The differences in tissue architecture of liver and spleens were assessed at 3 hours post-LPS administration. Prior to tissue harvest, whole body perfusion was performed by slowly flushing 10 mL of 37° C. PBS through the left ventricle of the heart while a cut in the right atrium allowed for the flow of blood. The liver and spleen were harvested, placed into tissue cassettes, and fixed overnight in 10% buffered formalin. The following day, the organs were paraffin embedded and sectioned in 5 μm slices. Slides were stained for H&E to define histological architecture using standard procedures.

[5] = test system: LPS-stimulated bone marrow macrophages (BMMØ); assay: BMMØ cytokine secretion following LPS stimulation (ELISA, Luminex); type: cell-based, C57BL/6J mice
Experimental: (§1) Three hours later, cells were stimulated with 100 ng/mL LPS. After 48 hours, cell culture supernatants were collected and analyzed by enzyme-linked immunosorbent assays (ELISA) (BioLegend, San Diego, CA) to measure murine IL-6 and TNFα. MAGPIX Luminex bead-based multiplex ELISA (Thermo Fisher Scientific, Waltham, MA) measured for 7 various cytokines and chemokines, and data were analyzed using the Luminex xPONENT software (Millipore) as per manufacturer's instructions. The 7-plex panel included murine IFNβ, IL-10, IL-6, IL-1β, MCP-1 (CCL2), TNFα, and GROα (CXCL1).
as §1, with “After” for “Three hours later, cells were stimulated with 100 ng/mL LPS. After”, “(Milli-pore)” for “(Millipore)”, “TL-6,” for “IL-6,”

BMMØs [6] = type: cell-based
Experimental: (§2) Three hours later, cells were stimulated with 100 ng/mL LPS. After 48 hours, cells were lifted using Versene and washed with cold PBS supplemented with 1% FBS and 0.4% 0.5 M EDTA (Quality Biological, Gaithersburg, MD). FcR blocking was performed with purified anti-mouse CD16/32 antibody (#101301) (Biolegend, San Diego, CA) prior to staining with Annexin V-FITC and propidium iodide kit (#640914) (BioLegend, San Diego, CA) for apoptosis and cell death. Cell staining was conducted according to BioLegend protocols for flow cytometry. Flow cytometry data were collected using a Becton Dickinson LSR II or Becton Dickinson Canto II flow cytometer. Flow plots and data processing was done using FCS Express 7 Flow Cytometry De Novo Software (De Novo, Glendale, CA).
as §2, with “After” for “Three hours later, cells were stimulated with 100 ng/mL LPS. After”

[7] = 0-30 μM for 3 hours, then LPS 100 ng/mL 48 hours, ELISA

SMILES | IC50 (HDAC1, 2, 3) [µM] | toxicity profile for the B cell population ([1]; 0-30 μM) | B cell death (AV+/PI+) ([1]; 10 μM, 24 hours) [%] | B cell viability (AV−/PI−) ([1]; 10 μM, 24 hours) [%] | acetylation of α-tubulin (BMMØs [2]) | toxicity for the T cell population [3] | reduction of plasma IL-6 [4] | reduction of plasma TNFα [4] | spleen tissue architecture (H&E) (spleen and liver) | IL-6 cytokine secretion [5, 7] | TNFα cytokine secretion [5, 7] | MCP-1 cytokine secretions ([5]; 10 μM, 3 hours before 48-hour LPS) | secretion of IL-10 ([5]; 10 μM, 3 hours before 48-hour LPS, Luminex, SAHA compared to SAHA-OH) | apoptosis (AV+/PI−) over concentration (BMMØs [6]; 0-30 μM) | viability (AV−/PI−) over concentration (BMMØs [6]; 0-30 μM) | apoptosis (AV+/PI−) (BMMØs [6]; 10 μM, 48 hours) [%] | cellular viability (AV−/PI−) (BMMØs [6]; 10 μM, 48 hours) [%]
O=C(CCCCCCC(=O)Nc1ccccc1)NO [SAHA, N^1-hydroxy-N^8-phenyloctanediamide, reference compound] | – | concentration-dependent toxicity profiles | 54.8 | 9.5 | similarly resulted in the acetylation | minimal toxicity | about 50% | about 50% | moderate histological disorganization | concentration-dependent reduction | concentration-dependent reduction | non-significantly affected | increased secretion | apoptosis induction | concentration-dependent viability reduction | 96.8 | 3.1
